{
  "source": "patent US4265901A",
  "about": "“2-Oxybenzimidazoline compounds” (priority 1979, dated 1981)",
  "key": {"adult housefly [1]": {"tested_on": "adult housefly", "test": "Efficacy against adult housefly, calves subcutaneous pellets (Example 20)", "type": "in vivo, Musca domestica", "conditions": "Musca domestica, sc, test day per line", "experimental": "(§1) For the adult housefly test, 10 ml. of serum were employed to saturate a wick which was placed in a petri dish. Twenty-five chilled houseflies were placed in the dish which was then incubated for 24 hours at 27° C. and 50% relative humidity. After the end of the twenty-four hours, the efficacy of the candidate compound was determined as the percent mortality of housefly, adjusted as for blowfly by normal mortality in a control and reported according to the same scale as above.\nThe compound of Example 2, 2-hydroxy-2-(1,1,2,2-tetrafluoroethyl)-4-nitro-6-(trifluoromethyl)benzimidazoline sodium salt, was formulated neat into tablets, each containing about 85 mg. of compound.\nThese pellets were implanted in the right shoulder area of two calves, weighing 400 and 373 kilograms respectively, to supply a dose of about 5 mg./kg. (animals #651 and 1511, respectively). Another calf (animal #656) was maintained as a control and two additional calves weighing 336 and 350 kilograms (animals #654 and 655, respectively) received pellets of 2-(1,1,2,2-tetrafluoroethyl)-4-nitro-6-(trifluoromethyl)benzimidazole, to supply a dose of about 5 mg./kg. of compound.\n(§2) As described in preceding examples, blood samples were withdrawn and analyzed for the concentration of the compound in the blood and percent efficacy against adult housefly and blowfly larvae."}, "blowfly larvae [2]": {"tested_on": "blowfly larvae", "test": "Efficacy against blowfly larvae, calves subcutaneous pellets (Example 20)", "type": "in vivo", "conditions": "Phormia regina, sc, test day per line", "experimental": "(§3) Representative compounds of the present invention were evaluated against larvae of blowfly (Phormia regina) and against adult housefly (Musca domestica). In these evaluations, the candidate compound was administered to each of two male guinea pigs weighing from about 400 grams to about 1000 grams. Administration was via the intraperitoneal route, the compound having been formulated in sesame oil. At twenty-four hours following administration of the compound, blood was withdrawn from the guinea pigs. The serum portion was isolated and blowfly larvae and adult houseflies were fed on the serum. For the blowfly assay, 10 ml. of serum were placed in a test tube with a wick onto which 50 blowfly larvae were placed. The covered test tube was incubated at 27° C. for 24 hours, at which time efficacy of the candidate compound was determined as the percent mortality of the blowfly larvae, adjusted by normal mortality in a control, and reported according to the following rating scale:\nThe compound of Example 2, 2-hydroxy-2-(1,1,2,2-tetrafluoroethyl)-4-nitro-6-(trifluoromethyl)benzimidazoline sodium salt, was formulated neat into tablets, each containing about 85 mg. of compound. […]\nas §2"}, "[3]": {"conditions": "CRC Handbook of Chemistry and Physics; cited from earlier work"}, "calf": {"tested_on": "calf", "test": "Tolerability in calves (Example 19)", "type": "in vivo", "experimental": "The compound of Example 3, 2-hydroxy-2,6-bis(trifluoromethyl)-4-nitrobenzimidazoline, sodium salt was evaluated as an ectoparasiticide when administered as pellets implanted in the ear of a calf numbered animal 106. The compound was formulated neat, in tablets about 1/8\" thick. A total of 14 pellets was inserted into the left ear of a 215-kilogram calf, to supply a dose of about 5 mg./kg. […] Two other calves received intramuscular injections of aqueous solutions of 2-hydroxy-2,6-bis(trifluoromethyl)-4-nitrobenzimidazoline, sodium salt, to provide 5 or 7.5 mg./kg. of animal body weight. (animals 119 and 121 respectively). […] A control animal was also maintained throughout the test period."}, "blowfly larvae [4]": {"tested_on": "blowfly larvae", "test": "Blowfly larvae fed on serum of dosed guinea pigs", "type": "in vivo, Phormia regina", "conditions": "guinea pig, serum at 24 hours", "experimental": "as §3\n(§4) Percent mortality was determined separately for each guinea pig."}, "guinea pigs": {"tested_on": "guinea pigs", "test": "Mortality of guinea pigs after intraperitoneal dosing", "type": "in vivo, guinea pig", "conditions": "for death of guinea pigs: two animals", "experimental": "as §3, with “scale: […]” for “scale:”"}, "adult housefly [5]": {"tested_on": "adult housefly", "test": "Adult houseflies fed on serum of dosed guinea pigs", "type": "in vivo, Musca domestica", "conditions": "guinea pig, serum at 24 hours", "experimental": "as §3, §4, §1"}, "[6]": {"conditions": "calf 654, pellets about 5 mg./kg."}, "[7]": {"conditions": "calf 655, pellets about 5 mg./kg."}},
  "note": "Structures can show the parent of a compound that is named as a salt.",
  "data": [
    {"smiles": "O=[N+]([O-])c1cc(C(F)(F)F)cc2nc(C(F)(F)C(F)F)[nH]c12", "note": "[2-(1,1,2,2-tetrafluoroethyl)-4-nitro-6-(trifluoromethyl)benzimidazole, reference compound]", "values": [
      {"measurement": "Emax at 5 mg/kg", "setting": "adult housefly [1]; [6]", "result": 100, "unit": "%"},
      {"measurement": "Emax at 5 mg/kg", "setting": "adult housefly [1]; [7]", "result": 100, "unit": "%"},
      {"measurement": "Emax at 5 mg/kg", "setting": "blowfly larvae [2]; [6]", "result": 100, "unit": "%"},
      {"measurement": "Emax at 5 mg/kg", "setting": "blowfly larvae [2]; [7]", "result": 100, "unit": "%"}
    ]},
    {"smiles": "N", "note": "[Ammonia, ammonia]", "values": [
      {"measurement": "Kb", "setting": "[3]", "result": "1.79×10^-5"}
    ]},
    {"smiles": "O=[N+]([O-])c1cc(C(F)(F)F)cc2c1NC(O)(C(F)(F)F)N2", "note": "(centres unmarked) [Example 3, 2-Hydroxy-2,6-Bis(Trifluoromethyl)-4-Nitrobenzimidazoline, Sodium Salt, Monohydrate]", "values": [
      {"measurement": "swelling post-insertion", "setting": "calf; calf 106, 14 ear pellets, about 5 mg./kg., 6 hours and 1 day", "result": "Some swelling was noted"},
      {"measurement": "death of calf", "setting": "calf; calf 121, 7.5 mg./kg. intramuscular", "result": "found dead on day 2"}
    ]},
    {"smiles": "CC(C)OC1(C(F)(F)C(F)F)Nc2cc(C(F)(F)F)cc([N+](=O)[O-])c2N1", "note": "(centres unmarked) [Example 4, 2-Isopropoxy-2-(1,1,2,2-Tetrafluoroethyl)-4-Nitro-6-(Trifluoromethyl)Benzimidazoline, Potassium Salt]", "values": [
      {"measurement": "Efficacy Rating, Blowfly Larvae", "setting": "blowfly larvae [4]; 5 mg./kg. i.p.", "result": "5 (100% dead)"},
      {"measurement": "death of guinea pigs", "setting": "guinea pigs; 10 mg./kg. i.p.", "result": "Both guinea pigs died"},
      {"measurement": "Efficacy Rating, Adult Housefly", "setting": "adult housefly [5]; 5 mg./kg. i.p.", "result": "5 (100% dead)"}
    ]},
    {"smiles": "O=[N+]([O-])c1cc(C(F)(F)F)cc2c1NC(O)(C(F)(F)C(F)F)N2", "note": "(centres unmarked) [Example 6, 2-Hydroxy-2-(1,1,2,2-Tetrafluoroethyl)-4-Nitro-6-(Trifluoromethyl)Benzimidazoline, Calcium Salt]", "values": [
      {"measurement": "Efficacy Rating, Blowfly Larvae", "setting": "blowfly larvae [4]; 5 mg./kg. i.p.", "result": "5 (100% dead)"},
      {"measurement": "Efficacy Rating, Blowfly Larvae", "setting": "blowfly larvae [4]; 10 mg./kg. i.p., Calcium Salt", "result": "5 (100% dead)"},
      {"measurement": "death of guinea pig", "setting": "guinea pigs; 5 mg./kg. i.p., one of two animals", "result": "Guinea pig died"},
      {"measurement": "Efficacy Rating, Adult Housefly", "setting": "adult housefly [5]; 5 mg./kg. i.p.", "result": "5 (100% dead)"},
      {"measurement": "Efficacy Rating, Adult Housefly", "setting": "adult housefly [5]; 10 mg./kg. i.p., Calcium Salt", "result": "5 (100% dead)"}
    ]},
    {"smiles": "O=[N+]([O-])c1cc(C(F)(F)F)cc2c1NC(O)(C(F)(F)C(F)F)N2", "note": "(centres unmarked) [Example 7, 2-Hydroxy-2-(1,1,2,2-Tetrafluoroethyl)-4-Nitro-6-(Trifluoromethyl)Benzimidazoline, Silver Salt]", "values": [
      {"measurement": "death of guinea pigs", "setting": "guinea pigs; 25 mg./kg. i.p.", "result": "guinea pigs died"},
      {"measurement": "death of guinea pigs", "setting": "guinea pigs; 50 mg./kg. i.p.", "result": "guinea pigs died"}
    ]},
    {"smiles": "O=[N+]([O-])c1cc(C(F)(F)F)cc2c1NC(O)(C(F)(F)C(F)F)N2", "note": "(centres unmarked) [Example 8, 2-Hydroxy-2-(1,1,2,2-Tetrafluoroethyl)-4-Nitro-6-(Trifluoromethyl)Benzimidazoline, Lithium Salt]", "values": [
      {"measurement": "Efficacy Rating, Blowfly Larvae", "setting": "blowfly larvae [4]; 5 mg./kg. i.p.", "result": "5 (100% dead)"},
      {"measurement": "death of guinea pigs", "setting": "guinea pigs; 20 mg./kg. i.p.", "result": "Both guinea pigs died"},
      {"measurement": "Efficacy Rating, Adult Housefly", "setting": "adult housefly [5]; 5 mg./kg. i.p.", "result": "5 (100% dead)"}
    ]}
  ]
}
